In patent US8975398B2, “NAMPT inhibitors” (AbbVie Inc., priority 2012, dated 2015):

Experiments:
NAMPT = NAMPT (Homo sapiens, UniProt P43490); test: Time-Resolved Fluorescence Resonance Energy Transfer (TR-FRET) Binding Assay of NAMPT with PRPP; conditions: 2 nM NAMPT, 2 nM probe, 200 uM PRPP and 2.5 mM ATP, equilibrated 16 hours
In short: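 Final mix: 2 nM NAMPT, 2 nM probe, 1 nM Tb-anti-His antibody, 200 uM PRPP, 2.5 mM ATP, 2% DMSO in 1× assay buffer. Equilibrated 16 hours before TR-FRET read, allowing possible enzymatic modification of compounds.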

[1] = target: NAMPT (human, recombinant, C-terminally His-tagged) (Homo sapiens, UniProt P43490); test: Time-Resolved Fluorescence Resonance Energy Transfer (TR-FRET) Binding Assay of NAMPT; conditions: 6.8 nM NAMPT, 200 nM probe, equilibrated 3 hours, absence of substrates
In short: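 Recombinant C-terminally His-tagged human NAMPT (6.8 nM) incubated 3 h at room temperature with 200 nM Oregon Green 488–labelled nicotinamide-competitive probe and 1 nM Tb-anti-His antibody in HEPES pH 7.5, 2% DMSO. TR-FRET ratio Em520/Em495 normalized to controls; IC50 from four-parameter logistic fit.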

NAMPT, sequence (P43490 whole entry): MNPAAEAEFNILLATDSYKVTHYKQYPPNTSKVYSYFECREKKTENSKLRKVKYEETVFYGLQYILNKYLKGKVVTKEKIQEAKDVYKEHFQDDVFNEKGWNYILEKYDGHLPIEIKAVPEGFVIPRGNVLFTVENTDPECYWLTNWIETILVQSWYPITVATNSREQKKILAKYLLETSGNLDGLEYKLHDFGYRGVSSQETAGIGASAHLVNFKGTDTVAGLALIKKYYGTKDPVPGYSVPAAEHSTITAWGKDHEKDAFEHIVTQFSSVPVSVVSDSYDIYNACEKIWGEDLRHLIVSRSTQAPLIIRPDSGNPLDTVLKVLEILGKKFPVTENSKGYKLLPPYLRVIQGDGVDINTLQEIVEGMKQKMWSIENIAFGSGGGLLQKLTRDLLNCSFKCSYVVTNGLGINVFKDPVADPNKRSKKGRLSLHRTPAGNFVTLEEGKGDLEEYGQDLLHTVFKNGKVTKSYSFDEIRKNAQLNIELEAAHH
NAMPT (human, recombinant, C-terminally His-tagged), sequence (P43490 whole entry): as above

| SMILES | IC50 (NAMPT) [nM] | IC50 [1] [nM] |
| --- | --- | --- |
| Cc1ccncc1N1CC(C(=O)Nc2ccc(C3CCN(C(=O)C(C)(C)O)CC3)cc2)C1 [Example 72, N-{4-[1-(2-hydroxy-2-methylpropanoyl)piperidin-4-yl]phenyl}-1-(4-methylpyridin-3-yl)azetidine-3-carboxamide] | 7.34 | 6.54 |
| Cc1ncccc1N1CC(C(=O)Nc2ccc(C3CCN(C(=O)CCN4CCCCC4)CC3)cc2)C1 [Example 190, 1-(2-methylpyridin-3-yl)-N-(4-{1-[3-(piperidin-1-yl)propanoyl]piperidin-4-yl}phenyl)azetidine-3-carboxamide] | 103 | 1910 |
| CC(=O)N[C@@H](CC(C)C)C(=O)N1CCC(c2ccc(NC(=O)C3CN(c4cccnn4)C3)cc2)CC1 [Example 385, N-{4-[1-(N-acetyl-L-leucyl)piperidin-4-yl]phenyl}-1-(pyridazin-3-yl)azetidine-3-carboxamide] | 1.24 | 55.1 |
| O=C(Nc1ccc(C2CCN(C(=O)c3cccc(O)c3)CC2)cc1)C1CN(c2cccnn2)C1 [Example 343, N-{4-[1-(3-hydroxybenzoyl)piperidin-4-yl]phenyl}-1-(pyridazin-3-yl)azetidine-3-carboxamide] | 0.728 | 6.18 |
| CC(=O)N[C@@H](CC(C)C)C(=O)N1CCC(Oc2ccc(NC(=O)C3CN(c4cccnc4)C3)cc2)CC1 [Example 47, N-(4-{[1-(N-acetyl-L-leucyl)piperidin-4-yl]oxy}phenyl)-1-(pyridin-3-yl)azetidine-3-carboxamide] | 1.78 | 80.5 |
| CCC(C)CN1CCC(Oc2ccc(NC(=O)C3CN(c4cccnc4)C3)cc2)CC1 (centres unmarked) [Example 80, N-(4-{[1-(2-methylbutyl)piperidin-4-yl]oxy}phenyl)-1-(pyridin-3-yl)azetidine-3-carboxamide] | 0.686 | 1600 |
| O=C(Nc1ccc(OC2CCN(C(=O)Cc3ccc(C(F)(F)F)cc3)CC2)cc1)C1CN(c2ccnnc2)C1 [Example 273, 1-(pyridazin-4-yl)-N-{4-[(1-{[4-(trifluoromethyl)phenyl]acetyl}piperidin-4-yl)oxy]phenyl}azetidine-3-carboxamide] | 42.1 | 128 |
| CC(C)C(=O)N1CCC(Oc2ccc(NC(=O)C3CN(c4cccnc4)C3)cc2)CC1 [Example 46, N-(4-{[1-(2-methylpropanoyl)piperidin-4-yl]oxy}phenyl)-1-(pyridin-3-yl)azetidine-3-carboxamide] | 1.02 | 93.4 |
| O=C(Nc1ccc(OC2CCN(C(=O)CC3CCCCC3)CC2)cc1)C1CN(c2cccnc2)C1 [Example 50, N-(4-{[1-(cyclohexylacetyl)piperidin-4-yl]oxy}phenyl)-1-(pyridin-3-yl)azetidine-3-carboxamide] | 1.1 | 63.5 |
| CC(C)(C)OC(=O)N1CCC(Oc2ccc(NC(=O)[C@H]3CCN(c4cccnc4)C3)cc2)CC1 [Example 8, tert-butyl 4-[4-({[(3S)-1-(pyridin-3-yl)pyrrolidin-3-yl]carbonyl}amino)phenoxy]piperidine-1-carboxylate] | 5.3 | 3360 |
| O=C(Nc1ccc(OC2CCN(C(=O)c3ccc(Cl)cc3)CC2)cc1)C1CN(c2cccnn2)C1 [Example 245, N-(4-{[1-(4-chlorobenzoyl)piperidin-4-yl]oxy}phenyl)-1-(pyridazin-3-yl)azetidine-3-carboxamide] | 0.707 | 101 |
| O=C(Nc1ccc(OC2CCN(C(=O)c3cccc(C(F)(F)F)c3)CC2)cc1)C1CN(c2cccnn2)C1 [Example 222, 1-(pyridazin-3-yl)-N-[4-({1-[3-(trifluoromethyl)benzoyl]piperidin-4-yl}oxy)phenyl]azetidine-3-carboxamide] | 1.03 | 215 |
| O=C(Nc1ccc(OC2CCN(C(=O)C3CCC(F)(F)CC3)CC2)cc1)C1CN(c2ccnnc2)C1 [Example 270, N-[4-({1-[(4,4-difluorocyclohexyl)carbonyl]piperidin-4-yl}oxy)phenyl]-1-(pyridazin-4-yl)azetidine-3-carboxamide] | 35.7 | 74.8 |
| O=C(Nc1ccc(C2CCN(C(=O)Cc3cccc(F)c3)CC2)cc1)C1CN(c2cccnn2)C1 [Example 367, N-(4-{1-[(3-fluorophenyl)acetyl]piperidin-4-yl}phenyl)-1-(pyridazin-3-yl)azetidine-3-carboxamide] | 0.735 | 33.7 |
| O=C(Nc1ccc(OC2CN(C(=O)Cc3ccc(F)cc3)C2)cc1)C1CN(c2ccnnc2)C1 [Example 203, N-[4-({1-[(4-fluorophenyl)acetyl]azetidin-3-yl}oxy)phenyl]-1-(pyridazin-4-yl)azetidine-3-carboxamide] | 21.1 | 34.2 |
| O=C(Nc1ccc(C2CCN(C(=O)c3cccs3)CC2)cc1)C1CN(c2cccnn2)C1 [Example 376, 1-(pyridazin-3-yl)-N-{4-[1-(thiophen-2-ylcarbonyl)piperidin-4-yl]phenyl}azetidine-3-carboxamide] | 0.468 | 3.22 |
| CC(C)(O)C(=O)N1CCC(c2ccc(NC(=O)C3CN(c4cnccc4C#N)C3)cc2)CC1 [Example 97, 1-(4-cyanopyridin-3-yl)-N-{4-[1-(2-hydroxy-2-methylpropanoyl)piperidin-4-yl]phenyl}azetidine-3-carboxamide] | 131 | 36.6 |
| CC1CC1C(=O)N1CCC(Oc2ccc(NC(=O)C3CN(c4cccnc4)C3)cc2)CC1 (centres unmarked) [Example 35, N-[4-({1-[(2-methylcyclopropyl)carbonyl]piperidin-4-yl}oxy)phenyl]-1-(pyridin-3-yl)azetidine-3-carboxamide] | 0.866 | 91.6 |
| CCCCCCC(=O)N1CCC(c2ccc(NC(=O)C3CN(c4cccnn4)C3)cc2)CC1 [Example 329, N-[4-(1-heptanoylpiperidin-4-yl)phenyl]-1-(pyridazin-3-yl)azetidine-3-carboxamide] | 0.616 | 24.2 |

More lines, in order of falling IC50 (NAMPT), values ahead:

| IC50 (NAMPT) [nM] | IC50 [1] [nM] | SMILES |
| --- | --- | --- |
| 70.8 | 74.5 | CCC(C)CC(=O)N1CCC(c2ccc(NC(=O)C3CN(c4cccnc4C)C3)cc2)CC1 (centres unmarked) [Example 160, N-{4-[1-(3-methylpentanoyl)piperidin-4-yl]phenyl}-1-(2-methylpyridin-3-yl)azetidine-3-carboxamide] |
| 38.3 | 31.7 | CCCCC(=O)N1CC(Oc2ccc(NC(=O)C3CN(c4ccnnc4)C3)cc2)C1 [Example 210, N-{4-[(1-pentanoylazetidin-3-yl)oxy]phenyl}-1-(pyridazin-4-yl)azetidine-3-carboxamide] |
| 26.7 | 62.4 | O=C(Nc1ccc(OC2CCN(C(=O)Cc3ccc(F)cc3F)CC2)cc1)C1CN(c2ccnnc2)C1 [Example 277, N-[4-({1-[(2,4-difluorophenyl)acetyl]piperidin-4-yl}oxy)phenyl]-1-(pyridazin-4-yl)azetidine-3-carboxamide] |
| 13.4 | 52.8 | CC(C)C(=O)N1CC(Oc2ccc(NC(=O)C3CN(c4ccnnc4)C3)cc2)C1 [Example 264, N-(4-{[1-(2-methylpropanoyl)azetidin-3-yl]oxy}phenyl)-1-(pyridazin-4-yl)azetidine-3-carboxamide] |
| 4.13 | 217 | CC(C)(C)C(=O)N1CCC(c2ccc(NC(=O)[C@H]3CCN(c4cccnn4)C3)cc2)CC1 [Example 313, (3S)—N-{4-[1-(2,2-dimethylpropanoyl)piperidin-4-yl]phenyl}-1-(pyridazin-3-yl)pyrrolidine-3-carboxamide] |
| 2.39 | 226 | CC(C)(C)C(=O)N1CCC(Oc2ccc(NC(=O)C3CN(c4cccnc4)C3)cc2)CC1 [Example 42, N-(4-{[1-(2,2-dimethylpropanoyl)piperidin-4-yl]oxy}phenyl)-1-(pyridin-3-yl)azetidine-3-carboxamide] |
| 0.806 | 72.1 | O=C(Nc1ccc(OC2CCN(C(=O)c3ccoc3)CC2)cc1)C1CN(c2cccnc2)C1 [Example 54, N-(4-{[1-(furan-3-ylcarbonyl)piperidin-4-yl]oxy}phenyl)-1-(pyridin-3-yl)azetidine-3-carboxamide] |
| 0.614 | 12.2 | CCC(CC)C(=O)N1CCC(c2ccc(NC(=O)C3CN(c4cccnn4)C3)cc2)CC1 [Example 328, N-{4-[1-(2-ethylbutanoyl)piperidin-4-yl]phenyl}-1-(pyridazin-3-yl)azetidine-3-carboxamide] |
| 0.569 | 80.6 | O=C(Nc1ccc(OC2CCN(C(=O)c3nccs3)CC2)cc1)C1CN(c2cccnc2)C1 [Example 68, 1-(pyridin-3-yl)-N-(4-{[1-(1,3-thiazol-2-ylcarbonyl)piperidin-4-yl]oxy}phenyl)azetidine-3-carboxamide] |
| 0.479 | 18.3 | O=C(Nc1ccc(C2CCN(C(=O)Cc3ccccc3Cl)CC2)cc1)C1CN(c2cccnn2)C1 [Example 369, N-(4-{1-[(2-chlorophenyl)acetyl]piperidin-4-yl}phenyl)-1-(pyridazin-3-yl)azetidine-3-carboxamide] |
| 0.361 | 16.9 | CCCC(=O)N1CCC(c2ccc(NC(=O)C3CN(c4cccnc4)C3)cc2)CC1 [Example 134, N-[4-(1-butanoylpiperidin-4-yl)phenyl]-1-(pyridin-3-yl)azetidine-3-carboxamide] |
| 0.209 | 13 | CCCCC(=O)N1CCC(c2ccc(NC(=O)C3CN(c4cccnc4)C3)cc2)CC1 [Example 98, N-[4-(1-pentanoylpiperidin-4-yl)phenyl]-1-(pyridin-3-yl)azetidine-3-carboxamide] |
